Measurements as given in patent US12138293B2 (priority 2020, dated 2024).
Several values for one entry are separate records, joined by “and”; a condition that tells them apart may be missing. Equal entries are not always repeated. Where two headings read alike, the source gives them in different places. Residues, ends and D or L forms follow the SMILES beside them.

What was measured:
in vivo = conditions: rabbit
[1] = tested on: transepithelial PTK injury of rabbit corneas; design: species or system rabbits; conditions: in vivo
[2] = tested on: eye of Dutch Belted rabbits; conditions: rabbit, in vivo
[3] = tested on: nitrogen mustard (NM)-exposed cornea; design: species or system New Zealand white rabbits; conditions: rabbit, in vivo
[4] = rabbit, in vivo
[5] = format: physicochemical
[6] = tested on: heptanol-induced corneal erosion (chemical burn injury) in rabbit eyes; conditions: in vivo
[7] = rabbit, in vivo; remark: listed apart in the source

With `CC[C@H](C)[C@H](NC(=O)[C@H](CCC(=O)O)NC(=O)[C@H](CC(C)C)NC(=O)[C@H](CC(=O)O)NC(=O)[C@H](CC(=O)O)NC(=O)[C@@H]1CCCN1C(=O)[C@H](CCCNC(=N)N)NC(=O)[C@@H]1CCCN1C(=O)[C@H](CCCNC(=N)N)NC(=O)[C@H](CCCCN)NC(=O)[C@H](CCCCN)NC(=O)[C@H](Cc1c[nH]c2ccccc12)NC(=O)[C@@H]1CCCN1C(=O)[C@H](CCCCN)NC(=O)[C@H](CCCNC(=N)N)NC(=O)[C@H](CCCNC(=N)N)NC(=O)[C@H](CC(N)=O)NC(=O)[C@@H]1CCCN1C(=O)[C@H](Cc1ccccc1)NC(=O)[C@H](Cc1c[nH]c2ccccc12)NC(=O)[C@@H](NC(=O)[C@H](CCCCN)NC(=O)[C@@H]1CCCN1C(=O)[C@H](CCC(N)=O)NC(=O)[C@H](CCCNC(=N)N)NC(=O)CCCCCNC(=O)CCCC[C@@H]1SC[C@@H]2NC(=O)N[C@@H]21)[C@@H](C)CC)C(=O)O` [aCT1, RQPKIWFPNRRKPWKK RPRPDDLEI] (HELM PEPTIDE1{[O=C1N[C@H]2[C@H](CS[C@H]2CCCCC(=O)[*:2])N1].[O=C(CCCCCN[*:1])[*:2]].R.Q.P.K.I.W.F.P.N.R.R.K.P.W.K.K.R.P.R.P.D.D.L.E.I}$$$$V2.0; N-terminus and C-terminus assumed) as the molecule, how does the Tmax (in vivo; both) read?
The Tmax was 15 min.

What about the tissue level at time at 0.25 h (in vivo; both, topical or ocular, 0.1 umol/eye/dose, Retinal tissue concentration) of the same molecule?
Its tissue level at time at 0.25 h is 1.91 to 24.2 ng/g.

What about the tissue level at time at 0.25 h (in vivo; female, topical or ocular, 0.1 umol/eye/dose, Cornea mean level) of the same molecule?
The tissue level at time at 0.25 h was 181 ± 50 ng/g.

What about the tissue level at time at 0.25 h (in vivo; female, topical or ocular, 0.1 umol/eye/dose, Palpebral conjunctiva highest mean concentration) of the same molecule?
The tissue level at time at 0.25 h was 2730 ± 697 ng/g.

What about the level at 0.25 h (in vivo; male, topical or ocular, 0.1 umol/eye/dose) of the same molecule?
Its level at 0.25 h is 3.26 ± 5.28 ng/mL.

What about the tissue level at time at 0.25 h (in vivo; male, topical or ocular, 0.1 umol/eye/dose, Aqueous humor mean level) of the same molecule?
Its tissue level at time at 0.25 h is 115 ± 76.3 ng/g.

What about the tissue level at time at 0.25 h (in vivo; male, topical or ocular, 0.1 umol/eye/dose, Palpebral conjunctiva highest mean concentration) of the same molecule?
The tissue level at time at 0.25 h was 939 ± 228 ng/g.

What about the “Corneal healing (fluorescein staining)” value [1] of the same molecule?
Its value is “accelerated corneal healing”.

What about the “Contact of saline formulation with the ocular surface” value [2] of the same molecule?
The value was “did not remain in contact with the ocular surface for a period of time sufficient”.

What about the “Corneal edema (corneal thickness)” value [3] of the same molecule?
Its value is “limited corneal edema damage”.

And the Corneal fibroblasts/keratocytes [3]?
Its Corneal fibroblasts/keratocytes is “protection of corneal fibroblasts/keratocytes”.

What about the “Expression of COX-2” value [3] of the same molecule?
The value was “reduced”.

And the “Formation of new blood vessels in the corneal stroma” value [3]?
The value was “limited the formation of new blood vessels”.

And the “Inflammatory cell infiltration in the corneal stroma (H&E)” value [3]?
The value was “significantly decreases inflammatory cell infiltration”.

What about the “MMP-9 expression in the stroma” value [3] of the same molecule?
The value was “reduction in MMP-9 expression”.

What about the VEGF expression [3] of the same molecule?
The VEGF expression was “decreased”.

And the “Maximum tolerated dose (MTD)” value [4]?
The value was “no maximum tolerated dose (MTD) was identified”.

And the “Microscopic findings in the eye tissues” value [4]?
Its value is “no microscopic findings”.

What about the “No observed adverse effect level (NOAEL)” value [4] of the same molecule?
The value was 1.0 μmol/eye.

And the “Tolerability (cage-side or clinical observations, body weight, clinical pathology, organ weight, necropsy)” value [4]?
The value was “well-tolerated and did not result in any adverse findings”.

And the “Loss of Purity” value ([5]; pH 6.5)?
The value was 0.67% and 0.24% and 0.03% and 0.76% and 1.05%.

And the “Loss of Purity (%)” value ([5]; pH 6.5)?
The value was 0.44% and 0.39% and 0.30% and 0.19% and 0.06%.

And the “Loss of Purity (%)” value ([5]; pH 7)?
Its value is 0.33%.

And the “Loss of Purity (%)” value ([5]; pH 7.5)?
Its value is 0.50%.

What about the “Corneal healing measured by central corneal thickness” value [6] of the same molecule?
The value was “accelerated corneal healing”.

What about the “Corneal healing measured by fluorescein staining” value [6] of the same molecule?
The value was “accelerated corneal healing”.

And the Vitreous humor levels [7]?
The Vitreous humor levels was “quantifiable levels”.

And the “Whole blood concentration, all other samples” value [7]?
Its value is “below the lower limit of quantitation (LLOQ)”.
